The source of these data is ChEMBL document CHEMBL3244019, “Chemical and biological studies of 1-(2,5-dihydroxy-4-methylphenyl)-2-aminopropane, an analogue of 6-hydroxydopamine” (J Med Chem, 1979).

Series [1] in a line: Half life in rabbit liver microsomes assessed as compound auto-oxidation at 37 uM. The class given is ADME, Oryctolagus cuniculus.
Series [2] can be described thus: Half life in rabbit liver homogenates with 13 ug of protein per ml assessed as compound auto-oxidation at 37 uM. The class given is ADME, tissue-based, Oryctolagus cuniculus. The note with it: liver homogenate.
Series [3] can be described thus: Metabolic stability in rabbit liver homogenates with 90 ug of protein per ml assessed as compound auto-oxidation at 37 uM after 15 mins. The settings on record: tissue homogenate, 0.25 h. The class given is ADME, tissue-based, Oryctolagus cuniculus.
Series [4] is described as follows: Half life of the compound assessed as compound auto-oxidation in 0.1 M buffer at 37 uM at pH 7.4. The class given is physicochemical.
Series [5] can be described thus: Half life of the compound in 0.1 M metal-free buffer assessed as compound auto-oxidation at 37 uM at pH 7.4. The class given is physicochemical.
In series [6] the target is T1, Albumin (Bos taurus, UniProt P02769). The experiment in a line: Covalent binding affinity to bovine serum albumin at 4.8 mM after 1 hr by combustion-LSC method in presence of DDQ relative to control. The class given is ADME. The settings on record: cattle, 4800 µM.
T1 sequence (P02769 whole entry): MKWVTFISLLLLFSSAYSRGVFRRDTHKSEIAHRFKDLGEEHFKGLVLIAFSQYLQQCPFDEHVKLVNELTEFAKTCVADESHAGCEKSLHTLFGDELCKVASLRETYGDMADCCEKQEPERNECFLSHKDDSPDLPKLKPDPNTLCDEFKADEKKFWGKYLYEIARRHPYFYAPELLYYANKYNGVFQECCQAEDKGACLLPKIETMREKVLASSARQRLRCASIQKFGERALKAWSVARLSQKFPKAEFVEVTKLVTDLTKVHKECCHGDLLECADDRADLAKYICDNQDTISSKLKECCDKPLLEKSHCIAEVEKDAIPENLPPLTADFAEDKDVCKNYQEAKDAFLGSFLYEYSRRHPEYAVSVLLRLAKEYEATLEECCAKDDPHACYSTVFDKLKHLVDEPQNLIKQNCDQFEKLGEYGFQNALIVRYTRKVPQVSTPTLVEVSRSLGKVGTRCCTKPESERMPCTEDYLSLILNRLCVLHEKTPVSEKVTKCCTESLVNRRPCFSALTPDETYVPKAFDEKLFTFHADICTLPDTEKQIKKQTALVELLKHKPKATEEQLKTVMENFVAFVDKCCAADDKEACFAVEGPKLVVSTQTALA
Series [7] addresses T1, Albumin. Put plainly: Covalent binding affinity to bovine serum albumin assessed per mol of BSA at 4.8 mM after 1 hr by combustion-LSC method. The class given is ADME. The note with it: cattle, 4800 µM.
Series [8] can be described thus: Covalent binding in rabbit liver microsomal macromolecules at 60 uM after 15 mins in presence of NADPH. The settings on record: microsomes, 0.25 h. The class given is ADME, Oryctolagus cuniculus.
The test system of a further series is Brain. The experiment in a line: Drug uptake in Sprague-Dawley rat brain at 6.6 mg, iv after 2 hrs. In kind it is ADME, organism-based. The settings on record: in vivo.

Take `Cc1cc(O)c(CC(C)N)cc1O` (centres undefined): the half-life at 37 µM in series [1] worked out at 1.67 h; in series [2], 1.17 h; in [4] it was 0.167 h; in [5] it was 3 h. Also, the Stability result in [3] was “Stable”.

Regarding `[3H]C([3H])([3H])C(N)C([3H])([3H])c1cc(O)c(C)cc1O` (centres undefined), the “fold change (FC)” value at Albumin [6] is recorded as 2. In addition, the PB at Albumin [7] was 0.12 equiv.

Regarding `[3H]C([3H])([3H])C(N)C([3H])([3H])c1cc(OC)c(C)cc1OC` (centres undefined), the Activity in [8] is on record as 0.2%.

`[3H]C1C2=CC(=O)C(C)=CC2=NC1C` (centres undefined) came in with a Drug uptake in the series with Brain of 0.05%.
